Experiment [1] addresses Galectin-1 (Homo sapiens, UniProt P09382). Briefly: (§1) Fluorescence Polarization-Based Assay: Compounds 7, 15-19, and 22 were evaluated for their efficiency in inhibiting galectin-1 and galectin-3 in a known fluorescence polarization-based assay (Sörme et al., 2003a, 2004). All compounds were potent inhibitors of galectin-1 and galectin-3 with dissociation constant in the low μM or nM range. This evidences that a properly structured cyclohexane can mimic the subsite D-binding saccharide moiety, e.g. N-acetylglucosamine in the disaccharide N-acetyllactosamine. Background: In fluorescence polarisation assays a small probe gives low polarisation when free and higher when bound to something large.

Experiment [2] deals with Galectin-3 (Homo sapiens, UniProt P17931). The experiment is described as §1.
Sequence of Galectin-3 (P17931 whole entry): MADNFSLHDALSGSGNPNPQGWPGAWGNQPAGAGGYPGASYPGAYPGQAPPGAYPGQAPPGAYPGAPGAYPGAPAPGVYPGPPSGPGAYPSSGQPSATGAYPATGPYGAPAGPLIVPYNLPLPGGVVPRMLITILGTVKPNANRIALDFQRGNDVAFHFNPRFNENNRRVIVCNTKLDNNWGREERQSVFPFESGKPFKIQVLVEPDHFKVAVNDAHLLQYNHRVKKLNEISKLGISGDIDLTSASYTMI

Sequence of Galectin-1 (P09382 whole entry): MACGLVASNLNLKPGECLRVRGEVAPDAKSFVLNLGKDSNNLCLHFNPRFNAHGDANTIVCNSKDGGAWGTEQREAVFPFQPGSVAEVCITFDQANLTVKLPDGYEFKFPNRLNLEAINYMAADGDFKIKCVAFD

In general, Kd refers to the constant that tells how readily two partners part at equilibrium. Low values mean tighter binding, high ones weaker binding. As for `CO[C@@H]1OC(CO)[C@@H](O[C@@H]2OC(CO)[C@H](O)[C@H](O)C2O)[C@H](O)C1NC(C)=O` (some centres not stated), the Kd in experiment [1] amounted to 65 µM; in experiment [2], 59 µM.

The values above are taken from ChEMBL document CHEMBL3638846, “Galactoside inhibitors of galectins” (2014).
